Source: patent publication EP4631928A1, “METHOD OF PURIFICATION OF GLYCOLIC ACID, COMPOSITION AND USE THEREOF” (Metabolic Explorer, priority 2024, dated 2025)

How the values were obtained:
interleukin 1α (IL-1α) = experiment: Inflammatory response, IL-1α release assay (ELISA) on reconstructed human epidermis; format: cell-based; conditions: IL-1α level normalized to tissue viability, 24 hours
Description: The 3D reconstructed human epidermis (RhE) used as test system in the study, is the SKINETHIC™ RHE model commercially available from the company EPISKIN SA. The SKINETHIC™ RHE model is obtained by tissue engineering from untransformed human keratinocytes previously obtained from human epidermis. The model is described in the OECD 439 guideline for in vitro skin irritation of chemical products.
The assay is based on topical application of the tested GA at different concentrations on reconstructed human epidermis (RHE SkinEthic™), followed by evaluation of: • Tissue viability, by MTT colorimetric test to determine the concentration of test product needed to produce the viability to 50% of control tissues (EC50). • SkinEthic™ RHE tissue inflammatory response, by interleukin 1α (IL-1α) release assay.
(§1) Prior to GA application, tissue inserts are transferred in 12-well plates prefilled with fresh maintenance medium. 60 µl/cm^2 of each GA solution is applied on top of epidermidis. After application, tissues are incubated for 24 hours at 37°C (±1 °C) and 5% ([…]) CO2.
At the end of the assay after 24 hours incubation period, the conditioned media underneath tissues are collected, aliquoted and stored at -20°C until IL-1α assay.
IL-1α is quantified using an Elisa kit (Quantikine Human IL-1α DLA50) according to the manufacturer's instructions. The optical densities are read at 450 nm.
IL-1α levels (pg/ml) are interpolated from the standard curve built with IL-1α standard provided with the Elisa kit. The mean of IL-1α release concentrations is calculated in each experimental group. For the comparative analysis, the IL-1α levels were normalized in function of tissue viability (MMT test). The values R (IL-1α/Viab%) ×100) have been calculated at different concentrations with the two GA and collected in the following Table 18: Table 18: IL-1α ratios.

SKINETHIC™ RHE model = experiment: Tissue viability, MTT assay on 3D reconstructed human epidermis after topical application; format: cell-based; conditions: for Tissue viability / EC50: 24 hours; for Tissue viability: relative to untreated epidermis; for EC50 value / EC50: concentration reducing viability to 50% of control tissues; for EC50: probit-log regression
Protocol: (§2) The assay takes place in two steps: • Step 1: EC50 concentration finding assay is performed with one representative sample. • Step 2: determination of EC50 concentration values and IL-1α levels performed with both GA.
as §1
(§3) The tissue viability is measured with the MTT assay performed in 24 hours. The MTT assay is based on the reduction of 3-(4,5-Dimethylthiazol-2-yl)-2,5-Diphenyltetrazolium Bromide (MTT) into insoluble purple formazan crystals, by metabolically active cells in a mitochondria-dependant reaction catalysed by succinate dehydrogenase. The ability of cells to reduce MTT after exposure to GA, compared to the control (untreated epidermis), enables to deduce the relative toxicity of the applied GA. The optical density (OD) of formazan solution is proportional to the number of viable cells.
(§4) After incubation, tissues are rinsed with PBS and then transferred into 24-well plates pre-filled with MTT solution. After 120 minutes (±10 minutes) of incubation at 37°C (±1 °C), the tissues are transferred into 24-well plates containing DMSO for extraction of formazan. Then the plates are stored overnight at room temperature. At the end of the extraction period, 3 x 200 µl aliquots of formazan extracts are transferred into a 96-well flat bottom microtiter plate and the optical density is read at 570 nm in a microplate reader.
(§5) The optical densities of each replicate are corrected by substracting the mean OD value of blank measured in parallel. The mean from corrected OD values (ODcorr) as well as standard deviation are calculated in each experimental group.
(§6) From the mean ODcorr values, the relative tissue viability (% viab) is calculated as a percentage of the mean viability of the control (untreated epidermis): % viab (treated) = ((treated) ODcorr mean)/((Control ODcorr mean) × 100. [formula]
(§7) The graph represents the dose response curve of cells viability (% viab) versus the GA concentration (C). The EC50 value is calculated from the dose response curve, by using the probit-log regression model.

skin = experiment: Usage test, panel questionnaire on skin quality; format: in vivo, human; conditions: between the 7th and the 14th day
Description: A panel of 60 women with mature skin ranging from normal to dry, were selected to apply to each half of the face, the two tested items: GA-METEX and GA-CONTROL. The panelists were asked about their feeling after 7 and 14 days of daily application. The questionnaire covered items: nourished skin, uniform skin, smooth skin, luminous skin, finer skin texture, firm skin.

[1] = Tissue viability, MTT assay on 3D reconstructed human epidermis after topical application; format: cell-based; conditions: human, 24 hours, relative to untreated epidermis
Protocol: as §2, §1, §3, §4, §5, §6, §7

| Structure (SMILES) | R (IL-1α/Viab%) ×100 (interleukin 1α (IL-1α); GA concentration 1.27%) | R (IL-1α/Viab%) ×100 (interleukin 1α (IL-1α); GA concentration 1.69%) | R (IL-1α/Viab%) ×100 (interleukin 1α (IL-1α); GA concentration 2.25%) | Tissue viability (SKINETHIC™ RHE model; GA concentration 1.27%) [%] | Tissue viability (SKINETHIC™ RHE model; GA concentration 1.69%) | Tissue viability (SKINETHIC™ RHE model; GA concentration 2.25%) [%] | Tissue viability (SKINETHIC™ RHE model; GA concentration 3%) [%] | EC50 value (SKINETHIC™ RHE model) [%] | EC50 (SKINETHIC™ RHE model) [% p/v] | user satisfaction, evolution (skin) | viability at 24 h, 1.27 % ([1]; GA concentration 1.27%) [%] | viability at 24 h, 3 % ([1]; GA concentration 3%) [%] |
| --- | --- | --- | --- | --- | --- | --- | --- | --- | --- | --- | --- | --- |
| O=C(O)CO [GA-CONTROL, Glycolic acid] | 15.09 | 35.33 | 75.07 | 62.1 | 31.2% | 10.5 | 3.4 | 1.42 | 1.42 | – | – | – |
| O=C(O)CO [GA-METEX, Glycolic acid] | 10.42 | 18.26 | 35.56 | – | 59,6% | 22.2 | – | 1.70 | 1.70 | significant increase in user satisfaction | 74.9 | 3.5 |
